Measured values reported in the COVID Moonshot data (paper PMC7615835).
Values joined by “and” are separate entries in the source; they are usually repeats but may differ in a detail not shown here. Equal values may be shown once.

Each compound was assayed against SARS-CoV-2 Main Protease (SARS-CoV-2) (UniProt P0DTD1).
Work on O=C(Nc1cncc2ccccc12)C1CCOc2c1ccc(Cl)c2Cl (centres undefined) yielded an IC50 of 3310 nM. With N#CC1CN(S(=O)(=O)N2Cc3ccc(Cl)cc3C3(CCN(c4cncc5ccccc45)C3=O)C2)C1 (centres undefined) the IC50 was 181 nM. C[C@@H]1CC[C@@]2(OC1)O[C@H]1C[C@H]3[C@@H]4CC=C5C[C@@H](O)CC[C@]5(C)[C@H]4CC[C@]3(C)[C@]1(O)[C@@H]2C (stereo in doubt) was tested, and the IC50 was > 99500 nM. COc1ccc(C2CC(c3ccccc3)=NN2C(=O)CCl)cc1OC (centres undefined) showed an IC50 of 543 nM. CC(Cn1ccnc1C#N)c1cccc(Cl)c1 (centres undefined) was tested, and the IC50 was > 99500 nM. O=C(Cc1cc(Cl)cc(N2CCN(c3ccc(O)cc3)CC2)c1)Nc1cncc2ccccc12 gave an IC50 of 2190 nM. With O=C(c1ccc(N2CCCC2)nc1)N1CCCC(c2ccn[nH]2)C1 (centres undefined) the IC50 was > 99500 nM. O=C(NCCc1cccc(F)c1)C(c1cccnc1)N(C(=O)c1cnc[nH]1)C1CCN(c2ccccc2F)C1 (centres undefined) was tested, and the IC50 was > 99000 nM. For Cc1cc2c(cc1S(=O)(=O)N1CCN(c3ccccc3)CC1)OCO2, the IC50 was > 99500 nM. In the case of O=C(CCl)N1CCN(Cc2cc(O)ccc2O)CC1, the IC50 is reported as 37400 nM. Compound CN(C)C(=O)CN1CCc2ccc(Cl)cc2C1C(=O)Nc1cncc2ccccc12 (centres undefined) has an IC50 of 1540 nM. Work on CCOC(=O)/C=C/N1CCN(S(=O)(=O)c2ccccc2)CC1 yielded an IC50 of 30000 nM. With COC(=O)CCSc1cc(Cl)ccc1N(C(=O)c1ccco1)C(C(=O)NCCc1cccc(F)c1)c1cccnc1 (centres undefined) the IC50 was 16600 nM. With CS(=O)(=O)c1ccc2c(NC(=O)C34CC(C3)Oc3ccc(Cl)cc34)cncc2c1 the IC50 was 22900 nM. For COc1ccc2n[nH]c(NC(=O)Cc3cccc(Cl)c3)c2c1, the IC50 was > 99500 nM. For CCCOc1cc(Cl)cc2c1OCCC2C(=O)Nc1cncc2ccccc12 (centres undefined), the IC50 was 5630 nM. With C[n+]1ccn(CCc2cccc(Cl)c2)c1C#N the IC50 was > 99500 nM. Compound CCN1CCN(c2ccc(Nc3cc(Cl)cc(CC(=O)Nc4cncc5ccccc45)c3)cc2)CC1 has an IC50 of 4300 nM. For COc1ccccc1OC(C)CNC(=O)c1cc(=O)[nH]c2cc(F)ccc12 (centres undefined), the IC50 was > 99500 nM. With C[C@@]1(C(=O)Nc2cncc3ccccc23)CCNc2cc(Cl)c(Cl)cc21 (stereo in doubt) the IC50 was 234 nM and 979 nM. In the case of CC(C)(C)c1ccc(N(C(=O)C2CCCN2)C(C(=O)NCCc2cccc(F)c2)c2cccnc2)cc1 (centres undefined), the IC50 is reported as > 99500 nM. CC1(C(=O)Nc2cncc3cc(S(C)(=O)=O)ccc23)CNS(=O)(=O)c2ccc(Cl)cc21 (centres undefined) gave an IC50 of 172 nM. CC(C)(C)c1ccc(N(C(=O)c2ccco2)C(C(=O)NCCN2CCOCC2)c2cccnc2)cc1 (centres undefined) showed an IC50 of 2190 nM. With CC(=O)c1ccccc1C(=O)N(c1ccc(C(C)(C)C)cc1)C(C(=O)NCCc1cccc(F)c1)c1cccnc1 (centres undefined) the IC50 was > 99500 nM. CC(C)(C)OC(=O)NCCNC(=O)C(c1cccnc1)N(C(=O)c1cocn1)c1ccc(C(C)(C)C)cc1 (centres undefined) showed an IC50 of 6260 nM. CC1=C[C@@H](c2c(O)cc(-c3cc4ccc(O)cc4o3)cc2O)[C@@H](C(=O)c2ccc(O)cc2O)[C@H](c2ccc(O)cc2O)C1 (stereo in doubt) was tested, and the IC50 was > 99500 nM. Work on O=C(NC1CCCCC1)[C@@H]1CN(C(=O)CCl)CCN1S(=O)(=O)c1ccsc1 (stereo in doubt) yielded an IC50 of 1140 nM. Cc1ccncc1NC(=O)Cc1cncc(Cl)c1 gave an IC50 of 46400 nM. In the case of Cc1ccncc1NC(=O)Cc1cc(Cl)cc(OCc2n[nH]c3ccccc23)c1, the IC50 is reported as > 99500 nM. CC(CCc1ccco1)NC(=O)Nc1cn(C)c(=O)c2ccccc12 (centres undefined) was tested, and the IC50 was 44500 nM. O=C(Cn1nnc2ccccc21)N(Cc1ccsc1)c1ccc(N2CCCCC2)cc1 gave an IC50 of 6560 nM. For C=CC(=O)NCC(=O)N(Cc1ccccc1)C[C@@]1(O)CN2CCC1CC2 (stereo in doubt), the IC50 was > 99500 nM. For COc1ccc2cncc(NC(=O)[C@@H]3CCNc4cc(Cl)c(Cl)cc43)c2c1 (stereo in doubt), the IC50 was 27200 nM. O=C(CN1CC(C(=O)Nc2cncc3cc(F)ccc23)c2cc(Cl)ccc2C1=O)NC1CC1 (centres undefined) was tested, and the IC50 was 556 nM. With Cn1nncc1C(=O)N(c1ccc(C(C)(C)C)cc1)C(C(=O)NCCc1cccc(F)c1)c1cccnc1 (centres undefined) the IC50 was > 99500 nM. O=C(Cc1cccc(Cl)c1)Nc1cccc2[nH]ncc12 was tested, and the IC50 was > 99500 nM. CN(C)C(=O)c1ccc2c(NC(=O)Cc3cccc(Cl)c3)cncc2c1 was tested, and the IC50 was 2440 nM. In the case of O=C(Nc1cncc2ccccc12)C1CN(S(=O)(=O)C2CCOC2)Cc2ccc(Cl)cc21 (centres undefined), the IC50 is reported as 152 nM. In the case of CCNC(=O)CN1CC(C(=O)Nc2cncc3ccccc23)c2cc(Cl)ccc2C1=O (centres undefined), the IC50 is reported as 62.8 nM and 105 nM and 143 nM. For O=C1N(c2cncc3ccccc23)CCC12CN(S(=O)(=O)N1CCC1)Cc1ccc(Cl)cc12 (centres undefined), the IC50 was 330 nM. CN1CC(C)(C(=O)Nc2cncc3cc(S(C)(=O)=O)ccc23)c2cc(Cl)ccc2S1(=O)=O (centres undefined) gave an IC50 of 523 nM. With O=C(Cc1cc(Cl)cc(Nc2nc3cc(Cl)ccc3s2)c1)Nc1cncc2ccccc12 the IC50 was 2040 nM. With N#Cc1cnn(-c2ccccn2)c1Nc1cc(Cl)cc(CC(=O)Nc2cncc3ccccc23)c1 the IC50 was 1720 nM. Work on N#CC1(CS(=O)(=O)N2Cc3ccc(Cl)cc3C3(CCN(c4cncc5cc(F)cc(Cl)c45)C3=O)C2)CC1 (centres undefined) yielded an IC50 of 23800 nM. Compound N#Cc1cc(F)c(Nc2cc(Cl)cc(CC(=O)Nc3cncc4ccccc34)c2)cc1F has an IC50 of 2120 nM. With CCc1ccc2c(c1)C(=O)C(=O)N2CC(=O)O the IC50 was > 99500 nM. CC(=O)Nc1ccc2c(NC(=O)Cc3cccc(Cl)c3)cncc2c1 gave an IC50 of 392 nM. For O=C(Nc1ccccc1)[C@@H](c1ccccc1)N1Cc2ccccc2C1=O (stereo in doubt), the IC50 was > 99500 nM. In the case of COc1ccc(Nc2cc(Cl)cc(CC(=O)Nc3cncc4ccccc34)c2)cc1C(F)(F)F, the IC50 is reported as 1890 nM.
